From patent US20190069553A1, “METHOD FOR CONTROLLING PPO RESISTANT WEEDS” (BASF SE, priority 2016, published 2019)
Like-named read-outs stand apart in the source and are kept apart here.

Legend:
Format in all cases: in vivo
[1] = system: Amaranthus tamariscinus (common waterhemp, AMATA), PPO resistant biotype 7 (w.11); assay: Greenhouse herbicidal activity test, third experiment, weed w.11; conditions: use rate 4 g/ha; PPO resistant biotype 7 common waterhemp; scale 0 to 100
[2] = system: Amaranthus tamariscinus (common waterhemp, AMATA), PPO resistant biotype 8 (w.12); assay: Greenhouse herbicidal activity test, third experiment, weed w.12; conditions: use rate 4 g/ha; PPO resistant biotype 8 common waterhemp; scale 0 to 100
[3] = system: Amaranthus tamariscinus (common waterhemp, AMATA), sensitive biotype (w.10); assay: Greenhouse herbicidal activity test, third experiment, weed w.10; conditions: scale 0 to 100
[4] = system: Amaranthus tamariscinus (common waterhemp, AMATA), sensitive biotype (w.1); conditions: scale 0 to 100
[5] = system: Ambrosia elatior (common ragweed, AMBEL), sensitive biotype (w.4); conditions: scale 0 to 100
[6] = system: Amaranthus tuberculatus (tall waterhemp, AMATU), sensitive biotype (w.7); assay: Greenhouse herbicidal activity test, another (second) experiment, weed w.7; conditions: scale 0 to 100

Row | Structure (SMILES) | Weed control (%) w.11 [1] [%] | Weed control (%) w.12 [2] [%] | Weed control (%) w.10 ([3]; use rate 2 g/ha) [%] | Weed control (%) w.10 ([3]; use rate 4 g/ha) [%] | Weed control (%) w.1 ([4]; use rate 1 g/ha) [%] | Weed control (%) w.1 ([4]; use rate 2 g/ha) [%] | Weed control (%) w.4 ([5]; use rate 1 g/ha) [%] | Weed control (%) w.4 ([5]; use rate 2 g/ha) [%] | Weed control (%) 7 ([6]; use rate 1 g/ha) [%] | Weed control (%) 7 ([6]; use rate 2 g/ha) [%]
1 | C#CCOc1cc(-n2nc3n(c2=O)CCCC3)c(Cl)cc1Cl [azafenidin, reference compound] | 73 | 72 | 95 | 98 |  |  |  |  |  | 
2 | CCOC(=O)COc1ncccc1Oc1cc(-n2c(=O)cc(C(F)(F)F)n(C)c2=O)c(F)cc1Cl [compound (I).1, ethyl [3-[2-chloro-4-fluoro-5-(1-methyl-6-trifluoromethyl-2,4-dioxo-1,2,3,4-tetrahydropyrimidin-3-yl)phenoxy]-2-pyridyloxy]acetate] |  |  |  |  | 100 | 100 | 100 | 100 | 100 | 100
3 | CCOC(=O)COc1ccccc1Oc1cc(-n2c(=O)cc(C(F)(F)F)n(C)c2=O)c(F)cc1Cl [compound (I).4] | 100 | 99 | 100 | 100 |  |  |  |  |  | 
4 | C#CCN1C(=O)COc2cc(F)c(N3C(=O)C4=C(CCCC4)C3=O)cc21 [flumioxazin, reference compound] |  |  |  |  | 90 | 95 | 50 | 65 |  | 
